The test system of one series is OM. In words: Outer membrane damage by less hydrophobic analogs. Format: cell-based.
In series [1] the test system is E. coli 25922. In words: Time-kill kinetics in broth versus plasma. Format: cell-based, Escherichia coli. The method, then: (§1) Time-kill kinetics data were determined using 100 μl of bacterial suspension (10^6 CFU/ml), which was added to […] LB containing none of or specified concentrations of the tested compound, antibiotic, and combinations thereof. After the specified exposure time points (37° C. under shaking), aliquots were formed, subjected to serial 10-fold dilutions in saline (0.85% NaCl), and plated for bacterial enumeration after additional 24 hours incubation at 37° C. Time-kill experiments in human and mouse plasma were performed as described elsewhere. The effects of drug delay were assessed in LB, except that bacteria were pre-incubated with the tested compound or antibiotic for the specified time points, centrifuged, and resuspended in fresh LB-containing antibiotic or the tested compound, respectively, and incubated for 3 hours before CFU enumeration.

In another series the test system is E. coli strain 14182. In words: Checkerboard antibiotic MIC with Compound B. Format: cell-based, Escherichia coli. The method, then: (§2) Minimal inhibitory concentrations (MICs) were determined as previously described. […] MICs were determined by microdilution susceptibility testing in 96-well plates (by Nunc) using inocula of 10^5 bacteria per ml. Cell populations were evaluated by optical density measurements at 620 nm and were calibrated against a set of standards. Hundred (100) μl of a bacterial suspension were added to 100 μl of culture medium (control) or to 100 μl of culture medium containing various tested compound concentrations in 2-fold serial dilutions. Inhibition of proliferation was determined by optical density measurements at 620 nm after an incubation period of 24 hours at 37° C. Data were obtained from ≥2 independent experiments performed in duplicate.
(§3) Shown in parentheses are calculated sensitization factor, defined as antibiotic's MICs ratio (in absence vs. presence of Compound B) at specified Compound B concentration.

Another series deals with E. coli strain 16327. In words: Checkerboard antibiotic MIC with Compound B. The format is cell-based, Escherichia coli. The method, then: as §2, §3
A further series has as its system E. coli strain 35218. Nature of the series: Checkerboard antibiotic MIC with Compound B. The format is cell-based, Escherichia coli. The method, then:
as §2, §3

The test system of the next series is E. coli strain 14384. Nature of the series: Checkerboard antibiotic MIC with Compound B. Format: cell-based, Escherichia coli. How it is done:
as §2, §3

The next series relates to E. coli strain 25922. Nature of the series: Checkerboard antibiotic MIC with Compound B. The format is cell-based, Escherichia coli. How it is done:
as §2, §3

Series [2] relates to E. coli strains 25922, 35218, 14182, 16327, 14384. In words: MIC against the 5 listed E. coli strains of Table 2 (stated together). Format: cell-based, Escherichia coli. To be noted: absence of Compound B. How it is done: as §2, §3
The conditions of series [3]: Oral 20 mg/kg, published data, cited from earlier work.
In series [4] the test system is E. coli 25922. In words: Simultaneous versus delayed drug exposure assay in LB. The format is cell-based, Escherichia coli. How it is done:
as §1

In the next series the test system is Escherichia coli 25922. In words: Mouse peritonitis-sepsis model. The format is in vivo. To be noted: neutropenic ICR mice; rifampin 20 mg/kg orally alone. The method, then:
A mouse peritonitis-sepsis model was created as described elsewhere. Infection was obtained after intraperitoneal injection of bacteria from a logarithmic-phase culture. Infected mice were treated subcutaneously. The doses were selected to allow comparison with the reference compound and to remain below the maximum tolerated dose after double-dose administration. […] Briefly, mouse peritonitis sepsis model for in vivo studies were performed using male ICR mice ([…]) obtained from Envigo Laboratories (Rehovot, Israel). […] Infection was obtained by intraperitoneal injection of a logarithmic phase culture of E. coli 25922 (1.3±0.2×10^6 CFU permouse in 0.3 ml PBS). […] Infection control mice were injected with the PBS vehicle. Mouse survival was monitored for up to 7 days after treatment. Statistical analyses were performed by paired Student's t test, at α=0.05.

This is an account of results in patent publication US20200399308A1, “COMPOUNDS AND METHODS FOR ELICITING ANTIMICROBIAL ACTIVITY” (Technion Research & Development Foundation Limited, priority 2018, published 2020).

Like-named read-outs stand apart in the source and are kept apart here. Non-standard residues stand in square brackets, D forms with d. Residues, ends and D or L forms follow the SMILES beside them. *: point of attachment. 12Ado = NCCCCCCCCCCCC(=O)O; Octanoyl = CCCCCCCC(=O)*

What is called MIC is the lowest concentration that inhibits growth of the organism.

With `CCCCCCCC(=O)N[C@@H](CCCCN)C(=O)N[C@@H](CCCCN)C(=O)NCCCCCCCCCCCC(=O)N[C@@H](CCCCN)C(N)=O` [Compound C8KKC12K] (Octanoyl-KK[12Ado]K-NH2), in the series with OM, the “damage to the OM” value is “able to damage the OM”.

As to `CO[C@H]1/C=C/O[C@@]2(C)Oc3c(C)c(O)c4c(O)c(c(/C=N/N5CCN(C)CC5)c(O)c4c3C2=O)NC(=O)/C(C)=C\C=C\[C@H](C)[C@H](O)[C@@H](C)[C@@H](O)[C@@H](C)[C@H](OC(C)=O)[C@@H]1C` [Rifampin, rifampin], the “reduction of bacterial survival” value in the series with E. coli 25922 [1] (LB broth, 24-hours end point, rifampin 1 μg/ml combined with Compound B 0.6 μM) is recorded as “more than 99%”. Also, the “reduction of CFU count” value in the series on E. coli 25922 [1] (human plasma, within 2 hours of exposure, rifampin 1 μg/ml with Compound B 0.6 μM) is “more than 3 log units”; in the series on E. coli 25922 [4] (0.06 μg/ml rifampin in the presence of Compound B (10 μM), simultaneous, 3 hours in LB), ~4 log units. Further, in the series on E. coli 25922 [1] (human plasma, antibiotic with Compound B 0.6 μM), the “time to accomplish the CFU reduction (more than 3 log units)” value is listed as ≤ 2 hours. Besides, in the series on E. coli 25922 [1] (mouse plasma, 24 hours end point, Compound B 10 μM with rifampin 1 μg/ml or erythromycin 3 μg/ml), the “combined action with Compound B” value is “expressed synergism of action”. Moreover, the “Antibiotic MIC in the presence of Compound B” value (shortened to “Antibiotic MIC in the presence”) in the series on E. coli strain 14182 (Compound B 0 μM) amounted to 8 µg/mL; in the series with E. coli strain 14182 (Compound B 2.5 μM), 0.031 µg/mL; with E. coli strain 14182 (Compound B 5 μM), 0.004 µg/mL; in the series on E. coli strain 14182 (Compound B 10 μM), 0.002 µg/mL; in the series on E. coli strain 16327 (Compound B 0 μM), 16 µg/mL; in the series on E. coli strain 16327 (Compound B 2.5 μM), 0.031 µg/mL. Besides, the “Antibiotic MIC in the presence” value worked out at 0.004 µg/mL in the series with E. coli strain 16327 (Compound B 5 μM); 0.002 µg/mL in the series on E. coli strain 16327 (Compound B 10 μM); 8 µg/mL in the series with E. coli strain 35218 (Compound B 0 μM); 0.016 µg/mL in the series on E. coli strain 35218 (Compound B 5 μM); 0.002 µg/mL in the series with E. coli strain 35218 (Compound B 10 μM); 8 µg/mL in the series on E. coli strain 14384 (Compound B 0 μM). For the same compound, the “Antibiotic MIC in the presence” value in the series with E. coli strain 14384 (Compound B 2.5 μM) is 0.016 µg/mL; with E. coli strain 14384 (Compound B 5 μM) it was 0.008 µg/mL; in the series on E. coli strain 14384 (Compound B 10 μM) it was 0.002 µg/mL; in the series with E. coli strain 25922 (Compound B 0 μM), 8 to 16 µg/mL; in the series with E. coli strain 25922 (Compound B 0 μM, listed as rifampin), 16 µg/mL; with E. coli strain 25922 (Compound B 2.5 μM), 0.063 µg/mL. In addition, the entries for the “Antibiotic MIC in the presence” value in the series on E. coli strain 25922 (Compound B 5 μM) and in the series on E. coli strain 25922 (Compound B 10 μM) were 0.004 µg/mL and 0.001 µg/mL, respectively. Also, the MIC with E. coli strain 25922 (Escherichia coli, read-out: rifampin's MIC value, in the presence of Compound B) was determined as 0.001 µg/mL. Further, the “antibiotic MICs in the absence of the compound, all the strains tested” value in series [2] lay in the range of 8 to 16 µg/mL. The figures for the Plasma concentration in [3] (0.5 h), in series [3] (1 h) and in series [3] (2 h) were 6500 ± 4700 ng/mL, 10300 ± 400 ng/mL and 13200 ± 4400 ng/mL, respectively. For the same compound, in the series with E. coli 25922 [4] (Compound B 10 μM with 0.06 μg/ml rifampin or 4 μg/ml erythromycin, LB), the “effect of delayed exposure on sensitization by Compound B” value is recorded as “nearly abolished the sensitization effect”. The “survival rate of infected mice” value in the series on Escherichia coli 25922 was “zero”.
